SMILES strings stand for the structures. Where two headings read alike, the source gives them in different places.

Our source for the IC50 values is patent publication US20240299387A1, “HETEROCYCLIC EGFR INHIBITORS FOR USE IN THE TREATMENT OF CANCER” (Blueprint Medicines Corporation, priority 2021, published 2024).

One experiment deals with T1, EGFR (L858R T790M C797S) (Homo sapiens, UniProt P00533, C797S/L858R/T790M).
T1 construct: purchased SignalChem E10-122VG
Kind of experiment: Biochemical EGFR inhibition assay (Caliper mobility shift), EGFR LRTMCS mutant. The protocol: Reactions proceeded until between 10% to 20% total peptides were phosphorylated at room temperature (25° C.) and were terminated with 35 mM 2,2′,2″,2′″-(ethane-1,2-diyldinitrilo)tetraacetic acid (EDTA). Product was detected using the Caliper mobility shift detection method where the phosphorylated peptide (product) and substrate were electrophoretically separated and measured. Percent activity was plotted against log concentration of compound and points to generate an apparent IC50.

Experiment [1] deals with T2, EGFR L858R T790M in NCI-H1975 cell line (Homo sapiens, UniProt P00533, L858R/T790M).
T2 construct: host or cells: NCI-H1975
T2 sequence (P00533 25-1210 T790M/L858R): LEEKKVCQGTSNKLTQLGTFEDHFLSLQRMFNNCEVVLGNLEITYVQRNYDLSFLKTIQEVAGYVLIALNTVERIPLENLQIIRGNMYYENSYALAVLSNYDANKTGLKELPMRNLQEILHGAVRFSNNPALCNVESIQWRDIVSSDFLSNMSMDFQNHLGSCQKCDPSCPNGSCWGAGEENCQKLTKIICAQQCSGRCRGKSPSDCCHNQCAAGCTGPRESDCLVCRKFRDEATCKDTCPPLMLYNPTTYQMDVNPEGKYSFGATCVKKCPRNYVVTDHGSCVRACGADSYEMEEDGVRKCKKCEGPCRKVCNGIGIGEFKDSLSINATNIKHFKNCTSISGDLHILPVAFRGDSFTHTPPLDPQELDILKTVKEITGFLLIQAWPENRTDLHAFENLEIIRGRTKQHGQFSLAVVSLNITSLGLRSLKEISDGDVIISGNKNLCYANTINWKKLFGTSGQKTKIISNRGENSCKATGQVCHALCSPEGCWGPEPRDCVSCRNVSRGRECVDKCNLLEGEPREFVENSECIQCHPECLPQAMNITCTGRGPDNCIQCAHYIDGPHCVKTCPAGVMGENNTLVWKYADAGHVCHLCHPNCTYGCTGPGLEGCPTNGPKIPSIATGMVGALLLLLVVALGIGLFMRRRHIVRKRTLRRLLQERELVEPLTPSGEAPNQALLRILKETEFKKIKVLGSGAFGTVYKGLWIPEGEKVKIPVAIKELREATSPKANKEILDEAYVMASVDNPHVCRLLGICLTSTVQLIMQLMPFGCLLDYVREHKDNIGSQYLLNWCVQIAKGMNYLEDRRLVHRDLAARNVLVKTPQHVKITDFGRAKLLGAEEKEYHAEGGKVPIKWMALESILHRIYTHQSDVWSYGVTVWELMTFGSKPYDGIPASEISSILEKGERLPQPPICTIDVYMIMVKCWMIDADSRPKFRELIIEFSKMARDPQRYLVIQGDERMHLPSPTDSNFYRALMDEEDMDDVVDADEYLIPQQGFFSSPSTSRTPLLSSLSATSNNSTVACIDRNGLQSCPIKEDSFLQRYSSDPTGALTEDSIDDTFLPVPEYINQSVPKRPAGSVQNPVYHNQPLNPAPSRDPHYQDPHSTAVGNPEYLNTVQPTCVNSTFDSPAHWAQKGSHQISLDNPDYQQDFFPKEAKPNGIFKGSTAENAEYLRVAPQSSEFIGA
The experiment in a line: NCI-H1975 pEGFR AlphaLISA assay. The experiment is classed as cell-based. As to conditions: NCI-H1975 cells (EGFR L858R T790M), p-EGFR (Tyr1068), 4-5 hours incubation; read-out: Ext pEGFR H1975 GMean IC50 (nM) Protocol: @Pharmaron AlphaLISA (Num). The protocol:
The NCI-H1975 cells were seeded at 12.5K/well in 22 μL into 384 well opti plate (PerkinElmer, 6007299) and adhering overnight at 37C/5% CO2. On the next day, the test compounds and DMSO control were added into H1975 cell plate followed by incubation at 37C/5% CO2 for 4-5 hours. […] Then 5 μL of a donor bead mix was added to each well followed by overnight incubation at room temperature in dark. On the next day, the plate was read at a compatible plate reader to obtain pEGFR signal. Percent of pEGFR inhibition was plotted against log concentration of compounds to generate IC50 values.
Background: Bead proximity is the source of the signal in Alpha formats.

Setting [2] is: LRTMCS (PH) IC50 (nM) @ 1 mM ATP (Num).

T1 sequence (P00533 25-1210 T790M/C797S/L858R): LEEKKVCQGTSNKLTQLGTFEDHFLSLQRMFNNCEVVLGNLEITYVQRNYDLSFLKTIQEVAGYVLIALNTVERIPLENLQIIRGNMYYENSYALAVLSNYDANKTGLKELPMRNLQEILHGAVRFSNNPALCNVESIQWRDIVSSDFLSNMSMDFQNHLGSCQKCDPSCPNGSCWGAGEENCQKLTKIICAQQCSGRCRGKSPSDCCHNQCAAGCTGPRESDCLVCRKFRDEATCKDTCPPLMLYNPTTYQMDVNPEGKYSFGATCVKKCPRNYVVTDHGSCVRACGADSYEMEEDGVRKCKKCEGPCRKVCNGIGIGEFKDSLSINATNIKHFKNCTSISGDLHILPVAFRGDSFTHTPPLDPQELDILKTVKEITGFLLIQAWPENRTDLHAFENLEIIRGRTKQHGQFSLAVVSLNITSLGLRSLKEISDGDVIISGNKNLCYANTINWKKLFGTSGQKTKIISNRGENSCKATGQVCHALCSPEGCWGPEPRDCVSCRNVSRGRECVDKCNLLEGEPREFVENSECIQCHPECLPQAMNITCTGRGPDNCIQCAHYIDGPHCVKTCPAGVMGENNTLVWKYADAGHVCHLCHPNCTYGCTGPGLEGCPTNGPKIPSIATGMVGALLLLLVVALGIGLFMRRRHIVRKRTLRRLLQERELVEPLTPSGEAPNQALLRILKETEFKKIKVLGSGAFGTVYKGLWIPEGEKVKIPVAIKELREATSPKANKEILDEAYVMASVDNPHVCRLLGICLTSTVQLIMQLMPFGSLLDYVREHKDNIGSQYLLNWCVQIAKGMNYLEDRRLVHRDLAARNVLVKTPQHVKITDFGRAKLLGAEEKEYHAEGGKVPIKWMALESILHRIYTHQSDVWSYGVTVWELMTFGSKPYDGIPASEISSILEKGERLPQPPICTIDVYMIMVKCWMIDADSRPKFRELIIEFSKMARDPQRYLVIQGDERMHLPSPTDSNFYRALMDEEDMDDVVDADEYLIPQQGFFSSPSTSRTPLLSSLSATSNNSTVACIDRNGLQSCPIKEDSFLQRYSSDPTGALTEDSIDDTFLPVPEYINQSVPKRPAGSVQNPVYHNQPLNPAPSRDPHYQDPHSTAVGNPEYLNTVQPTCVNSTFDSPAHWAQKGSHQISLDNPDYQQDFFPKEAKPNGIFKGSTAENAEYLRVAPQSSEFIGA

`CC(C)c1cnc(C(N)=O)c2cnc(Nc3ccnc(N4CC[C@@H](O)[C@@](C)(F)C4)n3)cc12` (single isomer, unassigned) [Example 61, 6-((2-((3S,4R)-3-fluoro-4-hydroxy-3-methylpiperidin-1-yl)pyrimidin-4-yl)amino)-4-isopropyl-2,7-naphthyridine-1-carboxamide or 6-((2-((3R,4S)-3-fluoro-4-hydroxy-3-methylpiperidin-1-yl)pyrimidin-4-yl)amino)-4-isopropyl-2,7-naphthyridine-1-carboxamide]: the IC50 (usually the point on the concentration scale where inhibition reaches its midpoint) is 20 to 30 nM at EGFR (L858R T790M C797S) (setting [2]) and greater than 50 nM in experiment [1].
As to `CC(C)c1cnc(C(=O)N[C@H]2CC2(F)F)c2cnc(Nc3ccnc(N4CC[C@@H](O)[C@@](C)(F)C4)n3)cc12` (single isomer, unassigned) [Example 63, N—((S)-2,2-difluorocyclopropyl)-6-((2-((3S,4R)-3-fluoro-4-hydroxy-3-methylpiperidin-1-yl)pyrimidin-4-yl)amino)-4-isopropyl-2,7-naphthyridine-1-carboxamide or N—((R)-2,2-difluorocyclopropyl)-6-((2-((3S,4R)-3-fluoro-4-hydroxy-3-methylpiperidin-1-yl)pyrimidin-4-yl)amino)-4-isopropyl-2,7-naphthyridine-1-carboxamide], the figures for the IC50 (at EGFR (L858R T790M C797S) (setting [2]); in experiment [1]) were 15 to 20 nM and greater than 50 nM, respectively.
As for `CNC(=O)c1ncc(C(C)C)c2cc(Nc3ccnc(N4C[C@@H](F)[C@@H](O)C(C)(C)C4)n3)ncc12` (single isomer, unassigned) [Example 82, 6-((2-((4S,5R)-5-fluoro-4-hydroxy-3,3-dimethylpiperidin-1l-yl)pyrimidin-4-yl)amino)-4-isopropyl-N-methyl-2,7-naphthyridine-1-carboxamide or 6-((2-((4R,5S)-5-fluoro-4-hydroxy-3,3-dimethylpiperidin-1-yl)pyrimidin-4-yl)amino)-4-isopropyl-N-methyl-2,7-naphthyridine-1-carboxamide], the IC50 at EGFR (L858R T790M C797S) (setting [2]) was 15 to 20 nM; in experiment [1] it was greater than 50 nM.
For `CC(C)c1cnc(C(=O)N[C@H]2CN(C)C[C@H]2F)c2cnc(Nc3ccnc(N4CC[C@@H](O)[C@@](C)(F)C4)n3)cc12` (single isomer, unassigned) [Example 87], the IC50 is less than 15 nM on EGFR (L858R T790M C797S) (setting [2]) and 10 to 20 nM in experiment [1].
As to `CC(C)c1cnc(C(=O)N[C@H]2CN(C)C[C@H]2F)c2cnc(Nc3ccnc(N4CC[C@@H](O)[C@@](C)(F)C4)n3)cc12` (single isomer, unassigned) [Example 88], the values for the half-inhibitory concentration (IC50) (on EGFR (L858R T790M C797S) (read-out: LRTMCS (PH) IC50 (nM) @ 1 mM ATP (Num)); in experiment [1]) were less than 15 nM and 10 to 20 nM, respectively.
On to `CC(C)c1cnc(C(=O)N[C@@H]2CN(C)C[C@H]2F)c2cnc(Nc3ccnc(N4CC[C@@H](O)[C@@](C)(F)C4)n3)cc12` (single isomer, unassigned) [Example 89], for which the IC50 was 15 to 20 nM on EGFR (L858R T790M C797S) (setting [2]) and greater than 50 nM in experiment [1].
`CC(C)c1cnc(C(=O)N[C@@H]2CN(C)C[C@H]2F)c2cnc(Nc3ccnc(N4CC[C@@H](O)[C@@](C)(F)C4)n3)cc12` (single isomer, unassigned) [Example 90]: the IC50 is less than 15 nM on EGFR (L858R T790M C797S) (setting [2]) and 10 to 20 nM in experiment [1].
Turning to `CC(C)c1cnc(NCCS(C)(=O)=O)c2cnc(Nc3ccnc(N4CC[C@@H](O)[C@@](C)(F)C4)n3)cc12` [Example 2, (3S,4R)-3-fluoro-1-(4-((5-isopropyl-8-((2-(methylsulfonyl)ethyl)amino)-2,7-naphthyridin-3-yl)amino)pyrimidin-2-yl)-3-methylpiperidin-4-ol], the results for the IC50 (on EGFR (L858R T790M C797S) (setting [2]); in experiment [1]) were less than 15 nM and 10 to 20 nM, respectively.
As to `CO[C@@H]1CCN(c2nccc(Nc3cc4c(C(C)C)cnc(NCCN(C)C)c4cn3)n2)C[C@@H]1F` [Example 3, N^1-(2-(dimethylamino)ethyl)-N^6-(2-((3S,4R)-3-fluoro-4-methoxypiperidin-1-yl)pyrimidin-4-yl)-4-isopropyl-2,7-naphthyridine-1,6-diamine], the IC50 on EGFR (L858R T790M C797S) (setting [2]) is 15 to 20 nM; in experiment [1] it was greater than 50 nM.
In the case of `CC(=O)N1CC(CNc2ccc(C(C)C)c3cc(Nc4ccnc(N5CC[C@@H](O)[C@@](C)(F)C5)n4)ncc23)C1` [Example 5, 1-(3-(((3-((2-((3S,4R)-3-fluoro-4-hydroxy-3-methylpiperidin-1-yl)pyrimidin-4-yl)amino)-5-isopropylisoquinolin-8-yl)amino)methyl)azetidin-1-yl)ethan-1-one], the results for the IC50 (on EGFR (L858R T790M C797S) (setting [2]); in experiment [1]) were less than 15 nM and 20 to 30 nM, respectively.
`CC(C)c1cnc(Nc2cnn(C)c2)c2cnc(Nc3ccnc(N4CC[C@@H](O)[C@@](C)(F)C4)n3)cc12` [Example 6, (3S,4R)-3-fluoro-1-(4-((5-isopropyl-8-((1-methyl-1H-pyrazol-4-yl)amino)-2,7-naphthyridin-3-yl)amino)pyrimidin-2-yl)-3-methylpiperidin-4-ol]: the figures for the IC50 (at EGFR (L858R T790M C797S) (setting [2]); in experiment [1]) were 20 to 30 nM and greater than 50 nM, respectively.
As to `CC(=O)N1CC(C)(COc2ccc(C(C)C)c3cc(Nc4ccnc(N5CC[C@@H](O)[C@@](C)(F)C5)n4)ncc23)C1` [Example 7, 1-(3-(((3-((2-((3S,4R)-3-fluoro-4-hydroxy-3-methylpiperidin-1-yl)pyrimidin-4-yl)amino)-5-isopropylisoquinolin-8-yl)oxy)methyl)-3-methylazetidin-1-yl)ethan-1-one], the results for the IC50 (at EGFR (L858R T790M C797S) (setting [2]); in experiment [1]) were 15 to 20 nM and 30 to 50 nM, respectively.
As to `CC(=O)N1CC(COc2ccc(C(C)C)c3cc(Nc4ccnc(N5CC[C@@H](O)[C@@](C)(F)C5)n4)ncc23)C1` [Example 8, 1-(3-(((3-((2-((3S,4R)-3-fluoro-4-hydroxy-3-methylpiperidin-1-yl)pyrimidin-4-yl)amino)-5-isopropylisoquinolin-8-yl)oxy)methyl)azetidin-1-yl)ethan-1-one], the IC50 at EGFR (L858R T790M C797S) (setting [2]) is less than 15 nM; in experiment [1], less than 10 nM.
For `CC(C)c1ccc(OCc2cnn(C)c2)c2cnc(Nc3ccnc(N4CC[C@@H](O)[C@@](C)(F)C4)n3)cc12` [Example 9, (3S,4R)-3-fluoro-1-(4-((5-isopropyl-8-((1-methyl-1H-pyrazol-4-yl)methoxy)isoquinolin-3-yl)amino)pyrimidin-2-yl)-3-methylpiperidin-4-ol] the same measures were less than 15 nM and greater than 50 nM.
Take `CC(C)c1ccc(OCc2cn(C)nn2)c2cnc(Nc3ccnc(N4CC[C@@H](O)[C@@](C)(F)C4)n3)cc12` [Example 10, (3S,4R)-3-fluoro-1-(4-((5-isopropyl-8-((1-methyl-1H-1,2,3-triazol-4-yl)methoxy)isoquinolin-3-yl)amino)pyrimidin-2-yl)-3-methylpiperidin-4-ol]: the half-inhibitory concentration (IC50) at EGFR (L858R T790M C797S) (setting [2]) was less than 15 nM; in experiment [1], 30 to 50 nM.
As for `CC(=O)N1CC(COc2ccc(C(C)C)c3cc(Nc4ccnc(N5CC[C@@](C)(O)[C@@H](F)C5)n4)ncc23)C1` [Example 11, 1-(3-(((3-((2-((3S,4R)-3-fluoro-4-hydroxy-4-methylpiperidin-1-yl)pyrimidin-4-yl)amino)-5-isopropylisoquinolin-8-yl)oxy)methyl)azetidin-1-yl)ethanone], the IC50 was 20 to 30 nM at EGFR (L858R T790M C797S) (setting [2]) and greater than 50 nM in experiment [1].
Regarding `CC(C)c1ccc(OCCn2ccnc2)c2cnc(Nc3ccnc(N4CC[C@@](C)(O)[C@@H](F)C4)n3)cc12` [Example 12, (3S,4R)-1-(4-((8-(2-(1H-imidazol-1-yl)ethoxy)-5-isopropylisoquinolin-3-yl)amino)pyrimidin-2-yl)-3-fluoro-4-methylpiperidin-4-ol], the results for the IC50 (on EGFR (L858R T790M C797S) (setting [2]); in experiment [1]) were less than 15 nM and greater than 50 nM, respectively.
Regarding `Cc1nccn1CCOc1ccc(C(C)C)c2cc(Nc3ccnc(N4CC[C@@](C)(O)[C@@H](F)C4)n3)ncc12` [Example 13, (3S,4R)-3-fluoro-1-(4-((5-isopropyl-8-(2-(2-methyl-1H-imidazol-1-yl)ethoxy)isoquinolin-3-yl)amino)pyrimidin-2-yl)-4-methylpiperidin-4-ol], the values for the IC50 (at EGFR (L858R T790M C797S) (setting [2]); in experiment [1]) were less than 15 nM and 30 to 50 nM, respectively.
For `CC(=O)N1CC(COc2ccc(C(C)C)c3cc(Nc4ccnc(N5CCC(C)(O)CC5)n4)ncc23)C1` [Example 14, 1-(3-(((3-((2-(4-hydroxy-4-methylpiperidin-1-yl)pyrimidin-4-yl)amino)-5-isopropylisoquinolin-8-yl)oxy)methyl)azetidin-1-yl)ethanone] the same measures were 20 to 30 nM and greater than 50 nM.
Consider `CC(C)c1ccc(OCCn2cncn2)c2cnc(Nc3ccnc(N4CCC(C)(O)CC4)n3)cc12` [Example 15, 1-(4-((8-(2-(1H-1,2,4-triazol-1-yl)ethoxy)-5-isopropylisoquinolin-3-yl)amino)pyrimidin-2-yl)-4-methylpiperidin-4-ol], for which the IC50 on EGFR (L858R T790M C797S) (setting [2]) was less than 15 nM; in experiment [1], 30 to 50 nM.
With `CC(C)c1ccc(OC[C@H]2CN(C)C(=O)O2)c2cnc(Nc3ccnc(N4CCC(C)(O)CC4)n3)cc12` [Example 16, (R)-5-(((3-((2-(4-hydroxy-4-methylpiperidin-1-yl)pyrimidin-4-yl)amino)-5-isopropylisoquinolin-8-yl)oxy)methyl)-3-methyloxazolidin-2-one], the IC50 on EGFR (L858R T790M C797S) (setting [2]) is 20 to 30 nM; in experiment [1], greater than 50 nM.
